According to publication PMC11249646, “Small-Molecule Disruptors of the Interaction between Calcium- and Integrin-Binding Protein 1 and Integrin αIIbβ3 as Novel Antiplatelet Agents” (ACS Pharmacology & Translational Science, 2024):
pIC50: −log10 of the molar value. Like-named read-outs stand apart in the source and are kept apart here.

Target: T1, CIB1 and αIIb interaction (CIB1-GST : F-αIIb peptide) (Homo sapiens, UniProt Q99828)
T1 construct: made in house; host or cells: BL-21 plus RIL cells (E. coli)
T1 sequence (Q99828 1-191): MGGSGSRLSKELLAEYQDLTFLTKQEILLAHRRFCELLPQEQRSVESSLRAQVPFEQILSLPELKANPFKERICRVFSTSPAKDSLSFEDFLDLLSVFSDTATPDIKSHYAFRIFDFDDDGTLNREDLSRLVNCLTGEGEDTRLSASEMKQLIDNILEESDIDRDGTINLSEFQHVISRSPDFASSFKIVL
Assay: FP assay, 1536-well qHTS format (primary and confirmatory screen)
Assay type: binding
Settings: for Efficacy (%): negative = inhibition; for Curve Class: negative sign = inhibitory curve; for pIC50: read-out: IC50

[1] = qHTS primary screen hits, Table S2
[2] = qHTS primary screen hits, Table S2, several classes where COUNT > 1
[3] = qHTS primary screen of LOPAC/NPACT libraries

Row | SMILES | Efficacy (%) [1] | Curve Class [2] | pIC50 [1] | also measured
1 | Cc1c2c(=O)n(-c3ccccc3)[nH]c2cc(=O)n1CCc1ccccc1.O=C(O)C(F)(F)F [NCGC00248471-01] | -28% | -2.4 | 4.30 | 
2 | NC(=O)N/N=C/c1ccc([N+](=O)[O-])o1 [NCGC00090686-07] | -26% |  | 3.95 | Curve Class [1]: -2.4
3 | Clc1ccccc1C(c1ccccc1)(c1ccccc1)n1ccnc1 [NCGC00015251-09] |  |  |  | Efficacy (%) [3]: -14%; Curve Class [3]: -2.4; pIC50 [3]: 4.70
4 | Cn1ccc(=Nc2ccc(NC(=O)c3ccc(/N=c4/ccn(C)c5ccc([N+](=O)[O-])cc45)cc3)cc2)cc1.O=C(O)C(F)(F)F [NCGC00356208-01] | -35% | -2.4 | 4.25 | 
5 | CC1=C(C(=O)OC2CCCCC2)C(c2ccc([N+](=O)[O-])cc2)C2=C(CC(C)(C)CC2=O)N1 (centres unmarked) [NCGC00370923-11] |  |  |  | Efficacy (%) [3]: -104%; Curve Class [3]: -2.1; pIC50 [3]: 4.75
6 | O=C(CN1C(=O)N/C(=C\c2cn(-c3cccc(C(=O)O)c3)cn2)C1=O)Nc1ccc(Cl)cc1 [NCGC00182401-01] | -30% | -2.4 | 4.35 | 
7 | Oc1ccc(Cl)cc1Sc1cc(Cl)ccc1O [NCGC00013679-06] | -30% | -2.4 | 4.30 | 
8 | O=c1ccc2ccc(O)c(O)c2o1 [NCGC00015349-05] |  |  |  | Efficacy (%) [3]: -13%; Curve Class [3]: -2.4; pIC50 [3]: 4.15
9 | Cl.Oc1ccc([C@H]2CNCc3c2ccc(O)c3O)cc1O [NCGC00183049-01] | -93% |  | 4.05 | Curve Class [1]: -3
10 | CC(=O)Nc1sc2c(c1-c1nc3ccccc3s1)CCN(C1COC1)C2.O=C(O)C(F)(F)F [NCGC00241066-01] | -83% | -1.2 | 4.85 | 
11 | C/C(=C\c1ccc(C(=O)O)cc1)c1ccc2c(c1)C(C)(C)CCC2(C)C [NCGC00016015-10] |  |  |  | Efficacy (%) [3]: -10%; Curve Class [3]: -1.4; pIC50 [3]: 4.40
12 | O=C(O)/C=C/c1ccc(-c2ccc(O)c(C34CC5CC(CC(C5)C3)C4)c2)cc1 [NCGC00485908-01] |  |  |  | Efficacy (%) [3]: -26%; Curve Class [3]: -2.4; pIC50 [3]: 4.35
13 | Cc1cccc(S(=O)(=O)Nc2cnccc2C(=O)Nc2nc(-c3ccccc3)cs2)c1.O=C(O)C(F)(F)F [NCGC00344904-01] | -43% | -2.4 | 4.25 | 
14 | CNC[C@H](O)c1cccc(O)c1 [NCGC00024257-06] | -15% | -1.2 | 5.25 | 
15 | COC(=O)C1=C(C)NC(C)=C(C(=O)OC)C1c1ccccc1[N+](=O)[O-] [NCGC00015748-13] |  |  |  | Efficacy (%) [3]: -24%; Curve Class [3]: -1.2; pIC50 [3]: 4.95
16 | Cc1ccc(C)n1-c1ccccc1C(=O)O.O=C(O)C(F)(F)F [NCGC00274054-01] | -40% | -2.4 | 4.30 | 
17 | Cc1ccc(C)n1-c1ccc(C(=O)O)cc1.O=C(O)C(F)(F)F [NCGC00273552-01] | -38% | -2.2 | 4.35 | 
18 | CCOc1cc(C(C)(C)C)ccc1C1=N[C@@](C)(c2ccc(Cl)cc2)[C@@](C)(c2ccc(Cl)cc2)N1C(=O)N1CCN(CC(=O)N2CCOCC2)CC1 [NCGC00378588-02] | -29% | -2.4 | 4.31 | 
19 | O=C1Cc2c([nH]c3ccc(Br)cc23)-c2ccccc2N1 [NCGC00015582-06] |  |  |  | Efficacy (%) [3]: -19%; Curve Class [3]: -1.4; pIC50 [3]: 4.70
20 | CCOc1cc(C(=O)N2CCC(N3CCN(C)CC3)CC2)ccc1Nc1ncc2c(n1)N(C1CCCC1)c1ccccc1C(=O)N2C [NCGC00378965-03] |  |  |  | Efficacy (%) [3]: -25%; Curve Class [3]: -2.4; pIC50 [3]: 4.25
21 | Oc1ccc2c3c1O[C@H]1c4[nH]c5c(N=C=S)cccc5c4C[C@@]4(O)[C@@H](C2)N(CC2CC2)CC[C@]314 [NCGC00485321-01] |  |  |  | Efficacy (%) [3]: -30%; Curve Class [3]: -2.4; pIC50 [3]: 4.00

Row | SMILES | Efficacy (%) [1] | Curve Class [2] | pIC50 [1] | also measured
22 | COc1cccc2nc3c(C(=O)NCCN(C)C)cccc3cc12.O=C(O)C(F)(F)F [NCGC00371843-01] | -37% | -2.4 | 4.30 | 
23 | O=C(O)C(F)(F)F.O=C1CC(c2ccccc2F)c2sc(N3CCOCC3)nc2N1 (centres unmarked) [NCGC00488254-02] | -42% | -2.4 | 4.25 | 
24 | CC(C)N1CCc2c(sc(NC(=O)Cc3ccccc3)c2-c2nc3ccccc3s2)C1.O=C(O)C(F)(F)F [NCGC00184841-01] | -104% |  | 4.55 | Curve Class [1]: -2.1
25 | Cc1nc2sccn2c(=O)c1CCN1CCC(=C(c2ccc(F)cc2)c2ccc(F)cc2)CC1 [NCGC00015877-09] |  |  |  | Efficacy (%) [3]: -22%; Curve Class [3]: -2.2; pIC50 [3]: 4.25
26 | Nc1ccc(-c2nc3ccc(-c4nc5cc(N)ccc5[nH]4)cc3[nH]2)cc1 [NCGC00094031-06] | -33% | -2.2 | 4.40 | 
27 | CO[C@@]1(NC(=O)CSCC#N)C(=O)N2C(C(=O)[O-])=C(CSc3nnnn3C)CS[C@@H]21.[Na+] [NCGC00023016-07] | -29% | -2.4 | 4.30 | 
28 | COc1ccc2c(c1)c(CC(=O)O)c(C)n2Cc1ccc(Cl)cc1 [NCGC00015217-05] | -44% |  | 4.40 | Curve Class [1]: -2.2
29 | C=C1C(=O)[C@@]23C(CC[C@@H]1[C@H]2O)[C@@]12CO[C@]3(O)[C@@H](O)[C@@H]1C(C)(C)CC[C@@H]2O (some centres unmarked) [NCGC00346595-01] |  |  |  | Efficacy (%) (qHTS FP screen hits, Table S2): -48%; pIC50 (qHTS FP screen hits, Table S2): 4.48
30 | Oc1ccc(Cl)c2cccnc12 [NCGC00095303-04] | -37% | -2.4 | 4.25 | 
31 | C[n+]1c2cc(N)ccc2cc2ccc(N)cc21 [NCGC00178831-03] | -101% |  | 5.96 | Curve Class [1]: -1.3
32 | O=C1NCc2c1c1c3ccccc3[nH]c1c1[nH]c3ccccc3c21 [NCGC00261167-01] |  |  |  | Efficacy (%) [3]: -24%; Curve Class [3]: -1.4; pIC50 [3]: 5.85
33 | Cc1ccc(C)n1-c1cccc(C(=O)O)c1.O=C(O)C(F)(F)F [NCGC00060597-04] |  |  |  | Efficacy (%) (qHTS FP screen hits, Table S2): -32%; pIC50 (qHTS FP screen hits, Table S2): 4.49
34 | CCN(CC)C(=O)N[C@@H]1C=C2c3cccc4[nH]cc(c34)C[C@@H]2N(C)C1 [NCGC00179663-03] | -60% | -2.4 | 4.30 | 
35 | Cc1cc(N2CCOCC2)cc2[nH]c(-c3c(NC[C@@H](O)c4cccc(Cl)c4)cc[nH]c3=O)nc12 [NCGC00346460-05] |  |  |  | Efficacy (%) [3]: -28%; Curve Class [3]: -1.4; pIC50 [3]: 4.75
36 | O=C1NC(c2cccc([N+](=O)[O-])c2)=CCN1c1ccccc1O [NCGC00015571-05] | -18% | -2.2 | 4.30 | 
37 | O=C(Nc1nc(-c2ccccc2)cs1)c1ccncc1NS(=O)(=O)c1ccc(F)cc1.O=C(O)C(F)(F)F [NCGC00344931-02] | -38% |  | 4.27 | 
38 | Cc1ccccc1C(=O)N1CCc2cc(-c3nc(NC(=O)Cc4cccc(OCCOCCOCCN)c4)sc3C)ccc21.O=C(O)C(F)(F)F [NCGC00351617-01] | -37% | -2.4 | 4.30 | 
39 | O=C1CCCC2=C1C(c1n[nH]cc1Br)N=C(Nc1nc3ccccc3o1)N2 (centres unmarked) [NCGC00229723-01] | -18% |  | 4.30 | Curve Class [1]: -2.4
40 | COc1ccc2c(c[n+](C)c3c4cc5c(cc4ccc23)OCO5)c1OC [NCGC00015225-07] |  |  |  | Efficacy (%) (qHTS FP screen hits, Table S2): -30%; pIC50 (qHTS FP screen hits, Table S2): 4.61
41 | Cc1c(Cl)cccc1-n1c(CCC(=O)O)ccc1-c1cccs1 [NCGC00100415-03] | -50% | -2.2 | 4.30 | 
